Source: ChEMBL document CHEMBL4196067, “Indole in the target-based design of anticancer agents: A versatile scaffold with diverse mechanisms” (Eur J Med Chem, 2018)
In brackets after ≈: the same amount, converted by molar mass. Values belong to the compound of their own block, whether it stands above or below them.

Assays:
[1] = system: HuT78; test: Antiproliferative activity against human HUT78 cells by alamar blue assay; format: functional
[2] = system: CCRF-HSB-2; test: Antiproliferative activity against human HSB2 cells by alamar blue assay; format: functional
[3] = system: Jurkat; test: Antiproliferative activity against human Jurkat cells by alamar blue assay; format: functional
[4] = system: MOLT-4; test: Antiproliferative activity against human MOLT4 cells by alamar blue assay; format: functional
[5] = target: T1, Sigma intracellular receptor 2 (Rattus norvegicus, UniProt Q5U3Y7); test: Displacement of [3H]-di-o-tolylguanidine from sigma-2 receptor in rat liver membranes after 180 mins by scintillation counting method; format: cell membranes, Membrane
T1 sequence (Q5U3Y7 whole entry): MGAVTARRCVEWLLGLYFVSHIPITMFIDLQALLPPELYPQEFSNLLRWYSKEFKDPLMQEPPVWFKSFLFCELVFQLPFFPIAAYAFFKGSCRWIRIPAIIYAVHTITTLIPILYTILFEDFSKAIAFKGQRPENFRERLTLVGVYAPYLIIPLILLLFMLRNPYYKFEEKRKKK

[6] = system: P388; test: Antiproliferative activity against mouse P388 cells; format: functional, cell-based
[7] = target: Serine/threonine-protein kinase pim-1 (Homo sapiens, UniProt P11309); test: Inhibition of PIM1 (unknown origin)
Sequence of Serine/threonine-protein kinase pim-1 (P11309 whole entry): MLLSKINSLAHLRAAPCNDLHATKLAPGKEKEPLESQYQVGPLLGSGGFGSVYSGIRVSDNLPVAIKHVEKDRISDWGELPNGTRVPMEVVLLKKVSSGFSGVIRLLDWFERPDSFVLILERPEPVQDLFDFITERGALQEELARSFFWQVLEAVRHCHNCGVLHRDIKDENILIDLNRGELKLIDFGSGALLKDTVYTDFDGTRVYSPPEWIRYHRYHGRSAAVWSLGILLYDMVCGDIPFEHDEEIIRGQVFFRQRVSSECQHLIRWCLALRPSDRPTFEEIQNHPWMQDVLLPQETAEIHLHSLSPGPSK

[8] = system: MCF7; test: Antiproliferative activity against human MCF7 cells; format: functional, cell-based
[9] = system: K562; test: Antiproliferative activity against human K562 cells; format: functional, cell-based
[10] = system: HCT-116; test: Antiproliferative activity against human HCT116 cells; format: functional, cell-based
[11] = system: LoVo; test: Antiproliferative activity against human LoVo cells; format: functional, cell-based
[12] = system: HepG2; test: Antiproliferative activity against human HepG2 cells; format: functional, cell-based
[13] = target: Histone deacetylase 1 (Homo sapiens, UniProt Q13547); test: Inhibition of HDAC1 (unknown origin)
Sequence of Histone deacetylase 1 (Q13547 whole entry): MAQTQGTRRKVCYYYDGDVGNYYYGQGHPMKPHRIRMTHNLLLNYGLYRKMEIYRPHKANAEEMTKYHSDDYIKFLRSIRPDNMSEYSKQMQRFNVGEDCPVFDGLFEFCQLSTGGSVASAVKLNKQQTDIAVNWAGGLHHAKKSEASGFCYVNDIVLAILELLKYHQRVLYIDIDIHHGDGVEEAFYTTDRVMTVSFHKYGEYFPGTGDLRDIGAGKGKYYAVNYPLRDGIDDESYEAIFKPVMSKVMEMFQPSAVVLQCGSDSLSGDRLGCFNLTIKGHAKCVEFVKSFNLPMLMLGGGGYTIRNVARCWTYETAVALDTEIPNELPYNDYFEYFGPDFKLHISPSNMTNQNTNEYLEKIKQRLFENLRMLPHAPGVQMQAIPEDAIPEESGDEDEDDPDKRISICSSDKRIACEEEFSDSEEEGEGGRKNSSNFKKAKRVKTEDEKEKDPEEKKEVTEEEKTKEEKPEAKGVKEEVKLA

[14] = target: Sigma non-opioid intracellular receptor 1 (Cavia porcellus, UniProt Q60492); test: Displacement of [3H]-(+)-pentazocine from sigma-1 receptor in guinea pig brain membranes after 180 mins by scintillation counting method; format: cell membranes, Membrane
Sequence of Sigma non-opioid intracellular receptor 1 (Q60492 whole entry): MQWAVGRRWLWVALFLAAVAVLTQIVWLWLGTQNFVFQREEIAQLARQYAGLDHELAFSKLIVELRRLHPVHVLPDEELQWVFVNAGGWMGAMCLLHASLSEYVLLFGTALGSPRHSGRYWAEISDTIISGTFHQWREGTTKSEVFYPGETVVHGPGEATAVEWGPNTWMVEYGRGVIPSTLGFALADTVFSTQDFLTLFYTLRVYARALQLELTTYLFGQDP

[15] = system: MCF7; test: Antiproliferative activity against human MCF7 cells after 72 hrs by SRB assay; format: functional, cell-based; conditions: MCF7, 72 h
[16] = system: MDA-MB-435; test: Antiproliferative activity against human MDA435 cells; format: functional, cell-based
[17] = system: HT-1080; test: Antiproliferative activity against human HT1080 cells; format: functional, cell-based

Compound: N[C@@H]1CSCON2CCc3c([nH]c4cc(Br)ccc34)[C@H]12
IC50 [6]: 0.01 µg/mL (≈ 0.0282 µM)

Compound: CCN(CC)CCCOc1cc(-c2ccc3[nH]cc(-c4ccnc(N)n4)c3c2)nc(N)n1
IC50 [7]: 0.067 µM

Compound: COc1ccc2[nH]cc(Cn3cc(COc4ccc(/C=C/C(=O)NO)cc4OC)nn3)c2c1
IC50 [8]: 3.57 to 6.21 µM | IC50 [9]: 3.57 to 6.21 µM | IC50 [10]: 3.57 to 6.21 µM | IC50 [11]: 3.57 to 6.21 µM | IC50 [12]: 3.57 to 6.21 µM | IC50 [13]: 0.078 µM

Compound: CN(C)CCCOc1cc(-c2ccc3[nH]cc(-c4ccnc(N)n4)c3c2)nc(N)n1
IC50 [7]: 0.058 µM

Compound: O=C(CCCCCCNC(=O)c1cc2ccccc2[nH]1)NO
IC50 [16]: 0.15 µM | IC50 [17]: 0.14 µM

Further lines, with some results ahead:

GI50 [2]: 2.4 to 4 µM | GI50 [3]: 2.4 to 4 µM | GI50 [4]: 2.4 to 4 µM
Compound: COc1ccc(Cn2ccc3ccc(C(=O)NO)cc32)cc1
GI50 [1]: 2.4 to 4 µM

Ki [5]: 0.0099 µM
Compound: Fc1ccccc1N1CCN(CCCn2ccc3ccccc32)CC1

Ki [5]: 0.0558 µM
Compound: Cc1cn(CN2CCN(CCc3ccccc3)CC2)c2ccccc12

Ki [14]: ≤ 0.13 µM | IC50 [15]: 2.92 µM | Ki [5]: ≤ 0.13 µM
Compound: Clc1ccc(CN2CCN(Cc3c[nH]c4ccccc34)CC2)cc1Cl
